In paper PMC9663686, “Proline, hydroxyproline, and pyrrolidone carboxylic acid derivatives as highly efficient but reversible transdermal permeation enhancers” (Scientific Reports, 2022):

Tests used:
human skin = test: Theophylline permeation through human skin in Franz diffusion cells with co-applied enhancer; format: in vitro ADME; conditions: 1% enhancer co-applied with 5% TH in 60% PG; for CDERMIS, theophylline concentration in dermis / CEPIDERMIS, theophylline concentration in epidermis: after 48 h permeation, mean ± SEM; for ER, enhancement ratio of theophylline flux (fold increase in flux over control): human skin in vitro
Protocol: The prepared enhancers were applied at 1% in 60% aqueous propylene glycol (PG) to human skin in vitro; 60% PG was used as a negative control. PG was selected for its synergy with amphiphilic enhancers. Each model drug was co-applied with the enhancer at infinite dose.
Donor samples for reversibility and infrared studies contained 1% enhancer in 60% PG. All samples were thoroughly mixed, incubated at 32 °C for 24 h, and, if needed, carefully resuspended before applying on the skin. The effects of the studied enhancers on the solubility of model drugs were assessed as described previously.
The permeation-enhancing potencies of the prepared compounds were evaluated on human skin in Franz diffusion cells. Human skin was slowly thawed, cut into 2 × 2 cm pieces, fixed in Teflon holders with 1-cm^2 circular permeation areas, and mounted into Franz cells epidermal side up. The acceptor compartment (15.9 ± 0.1 ml) was filled with phosphate-buffered saline at pH 7.4 with 0.005% gentamicin (PBS) and stirred at 32 °C throughout the experiment. The skin integrity was checked by electrical impedance (any skin sample with the impedance < 10 kΩ was excluded). Then, 100 µl of a donor sample (infinite dose) was applied to the skin and covered with a glass slide. Acceptor phase samples (300 µl) were collected at predetermined time intervals for 48 h, to reach steady-state and were replaced by the same volume of fresh PBS. […] The drug concentrations were measured by HPLC (see supplementary data).
The flux of the model drug through the skin Jss (µg/cm^2/h) was calculated from the linear region of this plot. The enhancement ratio (ER) was calculated as the ratio of flux with and without an enhancer.
After the permeation experiment, the cells were dismounted, the skin was carefully washed with PBS, and the permeation area of the skin (1 cm^2) was punched off. After heating the skin fragments to 80 °C for 1 min, the epidermis (E) was peeled off the dermis (D), individually weighed and extracted by 1 and 2 ml, respectively, of an extraction solvent (identical to the mobile phase for the drug HPLC analysis, see supplementary data) for 24 h. The drug concentration was measured by HPLC (see supplementary data).

3T3 mouse fibroblasts = test: Neutral red (NR) uptake cell viability assay, 3T3; format: cell-based; conditions: NIH3T3, 48-h incubation, read-out: IC50, 3T3 cells, NR assay
From the text: Next, the in vitro toxicities of the most promising enhancers Pro3 and Pro4, along with the parent Pro2, on spontaneously immortalized human keratinocytes (HaCaT) and Swiss albino mouse embryonic fibroblasts (3T3) were studied (Fig. 3). […] The cellular toxicities were further probed using the 3-(4,5-dimethylthiazol-2-yl)-2,5-diphenyltetrazolium bromide (MTT) uptake assay, based on the transformation of yellow MTT into purple formazan by mitochondrial reductases of living cells. The MTT assay also yielded toxicity values in tens of µM with trends to higher toxicity with a longer acyl chain length (thus also higher lipophilicity) of enhancers (Fig. 3).
Cell viability was determined via 3-(4,5-dimethylthiazol-2-yl)-2,5-diphenyltetrazolium bromide (MTT) and neutral red (NR) uptake assays after 48-h incubation with the enhancers (see Supplementary data for details).
Both cell lines were cultivated in Dulbecco’s modified Eagle’s medium (DMEM, Lonza, Basel, Switzerland) supplemented with 10% heat-inactivated fetal bovine serum (Merck, Darmstadt, Germany), 10 mM HEPES buffer (Merck, Darmstadt, Germany), and 1% penicillin/streptomycin solution (Lonza, Basel, Switzerland) in 75-cm^2 tissue culture flasks (TPP, Trasadingen, Switzerland) at 37°C in a humidified atmosphere of 5% CO2. Subconfluent cells were sub-cultured every 3-4 days.
For toxicity studies, the stock-solutions of studied compounds were prepared in dimethyl sulfoxide (DMSO). These stock samples were diluted to the required concentration by the cell culture medium immediately before adding them onto the cells. The amount of DMSO applied to the cells was kept under its intrinsic measurable toxicity limit (below 1 vol.%). […]
Another approach used for the toxicity assessment was the neutral red (NR) uptake assay. […] The plates were shaken at rt for 30 min, and the optical density of the soluble NR was measured at λ = 540 nm using a Tecan Infinite 200 M plate reader.
The viability of each experimental group was expressed as the percentage of the untreated controls incubated under the same conditions (100%).

Row | Compound | CDERMIS, theophylline concentration in dermis (human skin) | CEPIDERMIS, theophylline concentration in epidermis (human skin) | ER, enhancement ratio of theophylline flux (fold increase in flux over control) (human skin) | IC50 (3T3 mouse fibroblasts)
1 | CCCCCCCCCCCCOC(=O)C1CCCN1C(C)=O (stereo not drawn) [Pro2, N-acetyl proline dodecyl ester] | 0.37 ± 0.02 µg/mg | 1.04 ± 0.11 µg/mg | 28 | 84.09 ± 0.49 µM
2 | CCCCCCCCCCCCOC(=O)C1CCCN1C(=O)CC (stereo not drawn) [Pro3] | 0.32 ± 0.03 µg/mg | 1.11 ± 0.17 µg/mg | 31 | 57.2 ± 2.58 µM
3 | CCCCCCCCCCCCOC(=O)C1CCCN1C(=O)CCC (stereo not drawn) [Pro4] | 0.25 ± 0.01 µg/mg | 0.83 ± 0.08 µg/mg | 25 | 56.8 ± 2.45 µM
